Data from paper PMC9370035, “Identification of 3-Oxindole Derivatives as Small Molecule HIV-1 Inhibitors Targeting Tat-Mediated Viral Transcription” (Molecules, 2022).

Columns and labels:
HIV-1NL4-3 [1] = test: HIV-1 infectivity assay in TZM-bl cells (F-Luc under HIV-1 LTR); assay type: cell-based; details: for inhibition at 3 µM / IC50: Human immunodeficiency virus 1, NL43, TZM-bl; for inhibition at 3 µM: 48 h, read-out: Inhibition of HIV-1 Infectivity (%), TZM-bl cells, 3 μM, HIV-1 NL4-3 at MOI of 1, 48 h; for IC50: read-out: IC50 (inhibition of HIV-1 infection); for Inhibition ratio of HIV-1 infectivity, dose response / Inhibition of HIV-1 Infectivity (%): TZM-bl cells; for Inhibition ratio of HIV-1 infectivity, dose response: HIV-1NL4-3, up to a concentration of 25 μM; for Inhibition of HIV-1 Infectivity (%): 3 μM, HIV-1 NL4-3 at MOI of 1, 48 h
Text: TZM-bl cells (also referred as JC53BL-13) expressing human CD4, CXCR4, and CCR5 in order to facilitate HIV-1 infection, which contain the firefly luciferase (F-Luc) gene under the control of HIV-1 long terminal repeat (LTR) promoter was used to determine inhibitory effect of the compounds on HIV-1 infection, as described previously with minor modifications. […] Without replacement of a culture medium, the cells were then infected with the HIV-1NL4-3 strain at a multiplicity of infection (MOI) of 1 to determine the exact inhibitory effect of compounds on a single round infection. After 48 h, the inhibitory effect of the compounds was determined using a Bright Glo luciferase assay kit (Promega). The infectivity data are presented as a percentage relative to the DMSO control (vehicle). The inhibitory effects of the compounds on viral replication were determined with some minor modifications, as described previously. […] PBMCs were pre-activated with phytohemagglutinin M (PHA-M) for 3 days. The pre-activated 4 × 10^5 of PBMCs were washed with fresh media to remove excess PHA-M and then infected with HIV-1NL4-3 or HIV-1AD8 as that of A3.01 infection.

[2] = Cell viability (resazurin-based PrestoBlue) in parallel with infectivity assay; details: human, TZM-bl cells; for viability at 48 h, 3 µM: with infection of HIV-1 NL4-3 at MOI of 1; for CC50 at 48 h: serial dilution starting from 100 μM, read-out: CC50 (concentration that reduces cell viability by 50%)
HIV-1NL4-3 [3] = test: HIV-1 replication assay (p24 […]) in A3.01 T cell line; assay type: cell-based; details: A3.01 cells, HIV-1NL4-3 MOI 0.1, 1.5 μM, 72 h
Experimental: (§1) TZM-bl cells (also referred as JC53BL-13) expressing human CD4, CXCR4, and CCR5 in order to facilitate HIV-1 infection, which contain the firefly luciferase (F-Luc) gene under the control of HIV-1 long terminal repeat (LTR) promoter was used to determine inhibitory effect of the compounds on HIV-1 infection, as described previously with minor modifications. In brief, 1 × 10^4 cells were cultured in 96-well plates for 24 h and then treated with compounds at a final concentration of 3 μM (Figure 1A) or with 1:2 serially diluted compounds at concentrations ranging from 0 to 25 μM (dose-response assay; Figure 1B and Table 2). Without replacement of a culture medium, the cells were then infected with the HIV-1NL4-3 strain at a multiplicity of infection (MOI) of 1 to determine the exact inhibitory effect of compounds on a single round infection. After 48 h, the inhibitory effect of the compounds was determined using a Bright Glo luciferase assay kit (Promega). The infectivity data are presented as a percentage relative to the DMSO control (vehicle). The inhibitory effects of the compounds on viral replication were determined with some minor modifications, as described previously. In brief, 5 × 10^4 cells/ well of A3.01 cells were infected with HIV-1NL4-3 at an MOI of 0.1 with the spinoculation at 300 g for 2 h at 25 °C. PBMCs were pre-activated with phytohemagglutinin M (PHA-M) for 3 days. The pre-activated 4 × 10^5 of PBMCs were washed with fresh media to remove excess PHA-M and then infected with HIV-1NL4-3 or HIV-1AD8 as that of A3.01 infection. After infection, the infectious media were replaced with fresh media (supplemented with international 10 units (IU)/mL of IL-2 for PBMCs containing 1.5 μM of compounds. At 72 h after infection, the inhibitory effect of the compounds on viral replication was determined by measuring the amount of p24, an HIV capsid protein, using an HIV-1 p24 […]™ kit (PerkinElmer, Waltham, MA, USA). Cell viability was determined by using the resazurin-based PrestoBlue™ cell viability reagent (Thermo Fisher Scientific, Waltham, MA, USA) according to the manufacturer’s protocols.

HIV-1NL4-3 [4] = test: HIV-1 replication assay (p24 […]) in PBMCs, CXCR4 tropic strain; assay type: cell-based; details: HIV-1NL4-3 MOI 0.1, 1.5 μM, 72 h
Experimental: as §1

[5] = tested on: Tat-mediated HIV-1 transcription; test: microbe, parasite or virus in culture; assay type: cell-based; details: for Inhibition of Tat-induced HIV-1 transcription, concentration response / Tat-induced transcriptional activity (F-Luc): bl-DTR cells; for Inhibition of Tat-induced HIV-1 transcription, concentration response: 0 to 25 μM; for Tat-induced transcriptional activity (F-Luc): 3 μM, doxycycline 50 ng/mL, 24 h
Experimental: (§2) bl-DTR (TZM-bl-derived dual Tat reporter) cells derived from TZM-bl cells by insertion of two doxycycline-inducible lentiviral vector-expressing flag-tagged tat and Renilla-luciferase (R-Luc) genes were used to determine simultaneously both activities of Tat-mediated HIV-1 transcription and general cellular transcription, as described previously. Determination of the inhibitory effect of the compounds on Tat-mediated transcription was performed as described previously. In brief, 1 × 10^4 of bl-DTR cells cultured in 96-well plates were treated with compounds at a final concentration of 3 μM (Figure 3C) or with 1:2 serially diluted compounds at concentrations ranging from 0 to 25 μM (Figure 4 and Table 3). Subsequently, doxycycline was treated at a final concentration of 50 ng/mL to induce Tat-mediated F-Luc and R-Luc. At 24 h after treatment, the activities of F-Luc and R-Luc were determined by using a Dual-Glo™ luciferase assay system (Promega, Madison, WI, USA) according to the manufacturer’s protocols. The data are presented as a percentage relative to the DMSO control (vehicle) in the presence of doxycycline, and the experiment was performed in triplicate.

HIV-1 integrase = biological target: T1, HIV-1 integrase (Human immunodeficiency virus type 1 group M subtype B, UniProt P04585); test: HIV-1 integrase assay kit; assay type: biochemical; details: 10 μM
T1 construct: purchased XpressBio, Frederick, MD, USA
Experimental: The integrase activity was determined using an HIV-1 integrase assay kit (XpressBio, Frederick, MD, USA), according to the manufacturer’s protocols. In brief, a 96-well plate coated with donor substrate (DS) DNA was blocked with blocking buffer for 30 min at 37 °C. One hundred μL of HIV-1 integrase diluted with 1:300 onto reaction buffer was added to the plate, and the plate was then incubated for 30 min at 37 °C. Subsequently, 50 μL of compounds were added to the plate at final concentrations of 10 and 20 μM. At 5 min after addition of compounds, 50 μL of target substrate DNA diluted at 1:100 was added to the plate and incubated for 30 min at 37 °C. The plate was washed and then incubated with 100 μL of horse radish peroxidase antibody solution for 30 min at 37 °C. Integrase activity was assessed by measuring the peroxidase activity reacted with 3,3′,5,5′-tetramethylbenzidine substrate at optical density […]. The experiment was performed in triplicate.

[6] = tested on: general cellular transcription; test: R-Luc activity in bl-DTR cells (general cellular transcription); assay type: cell-based; details: high dosages (12.5 μM and 25 μM)
Experimental: as §2

TZM-bl cells = test: Cell viability (resazurin-based PrestoBlue) in parallel with infectivity assay; details: 3 μM, with infection of HIV-1 NL4-3 at MOI of 1

Cc1cn([C@H]2C[C@H](N=[N+]=[N-])[C@@H](CO)O2)c(=O)[nH]c1=O [AZT, azidothymidine, reference compound]
inhibition at 3 µM (HIV-1NL4-3 [1]): 99.65 ± 0.048% | IC50 (HIV-1NL4-3 [1]): 0.079 ± 0.0237 µM | viability at 48 h, 3 µM [2]: 94.8 ± 7.21% | CC50 at 48 h [2]: > 100 µM

CCOC(=O)C1(C/C=C/Cl)Nc2cccc(C)c2C1=O (stereo not drawn) [Compound 6a, Ethyl (E)-2-(3-chloroallyl)-4-methyl-3-oxindole-2-carboxylate]
inhibition at 3 µM (HIV-1NL4-3 [1]): ~20% | IC50 (HIV-1NL4-3 [1]): 13.7 ± 2.55 µM | viability at 48 h, 3 µM [2]: 106 ± 9.33% | CC50 at 48 h [2]: 87.4 ± 12.7 µM | Inhibitory effect on viral replication (p24) (HIV-1NL4-3 [3]): no inhibition | Inhibitory effect on viral replication (p24) (HIV-1NL4-3 [4]): no inhibition | IC50 ([5]; Human immunodeficiency virus 1, 24 h, read-out: IC50 (inhibition of Tat-mediated HIV-1 transcription)): 9.53 ± 0.48 µM | melting point: > 300 °C

COC(=O)C1(C/C=C/Cl)Nc2ccc(OC)cc2C1=O (stereo not drawn) [Compound 6b, Methyl (E)-2-(3-chloroallyl)-5-methoxy-3-oxindole-2-carboxylate]
inhibition at 3 µM (HIV-1NL4-3 [1]): 0.55 ± 4.34% | viability at 48 h, 3 µM [2]: 99.6 ± 14.2% | Inhibitory effect on viral replication (p24) (HIV-1NL4-3 [3]): no inhibition | Inhibitory effect on viral replication (p24) (HIV-1NL4-3 [4]): no inhibition | melting point: > 300 °C

CCCC1(C(=O)OC)Nc2ccc(OC)cc2C1=O (stereo not drawn) [Compound 6c, Methyl 5-methoxy-3-oxo-2-propylindoline-2-carboxylate]
inhibition at 3 µM (HIV-1NL4-3 [1]): 16.2 ± 5.52% | viability at 48 h, 3 µM [2]: 92.7 ± 5.77% | melting point: 117 to 118 °C

C=CCC1(C(=O)OC)Nc2cc(C)cc(C)c2C1=O (stereo not drawn) [Compound 6h, Methyl 2-allyl-4,6-dimethyl-3-oxindole-2-carboxylate]
inhibition at 3 µM (HIV-1NL4-3 [1]): 23.6 ± 4.46% | Inhibition ratio of HIV-1 infectivity, dose response (HIV-1NL4-3 [1]): did not show further increased inhibitory effect | viability at 48 h, 3 µM [2]: 107 ± 4.73% | Inhibitory effect on viral replication (p24) (HIV-1NL4-3 [3]): no inhibition | Inhibitory effect on viral replication (p24) (HIV-1NL4-3 [4]): no inhibition | melting point: 147 °C

CCCC1(C(=O)OC)Nc2cc(C)cc(C)c2C1=O (stereo not drawn) [Compound 6i, Methyl 4,6-dimethyl-3-oxo-2-propylindoline-2-carboxylate]
inhibition at 3 µM (HIV-1NL4-3 [1]): 9.15 ± 0.96% | viability at 48 h, 3 µM [2]: 99.4 ± 8.83% | Inhibitory effect on viral replication (p24) (HIV-1NL4-3 [3]): no inhibition | Inhibitory effect on viral replication (p24) (HIV-1NL4-3 [4]): no inhibition | melting point: 132 to 133 °C

CCOC(=O)c1[nH]c2cccc(C)c2c1OC/C=C/Cl [Compound 7a, ethyl (e)-3-((3-chloroallyl)oxy)-4-methyl-1h-indole-2-carboxylate]
inhibition at 3 µM (HIV-1NL4-3 [1]): ~20% | Inhibition ratio of HIV-1 infectivity, dose response (HIV-1NL4-3 [1]): ~50% | viability at 48 h, 3 µM [2]: 117 ± 2.7% | Inhibition of Tat-induced HIV-1 transcription, concentration response [5]: do not affect | melting point: 226 °C

COC(=O)c1[nH]c2ccc(OC)cc2c1OC/C=C/Cl [Compound 7b, methyl (e)-3-((3-chloroallyl)oxy)-5-methoxy-1h-indole-2-carboxylate]
inhibition at 3 µM (HIV-1NL4-3 [1]): ~20% | Inhibition ratio of HIV-1 infectivity, dose response (HIV-1NL4-3 [1]): ~50% | viability at 48 h, 3 µM [2]: 110 ± 4.96% | Inhibition of Tat-induced HIV-1 transcription, concentration response [5]: do not affect | melting point: > 300 °C

C[C@@H]1CCO[C@H]2Cn3cc(C(=O)NCc4ccc(F)cc4F)c(=O)c(O)c3C(=O)N12 [DOL, dolutegravir]
Inhibition of integrase activity (HIV-1 integrase): inhibited

Cc1nnc(C(=O)NC(C)(C)c2nc(C(=O)NCc3ccc(F)cc3)c(O)c(=O)n2C)o1 [RAL, raltegravir]
Inhibition of integrase activity (HIV-1 integrase): inhibited

CC[C@H](CO)Nc1nc(NCc2ccccc2)c2ncn(C(C)C)c2n1 [seliciclib, Seliciclib, reference compound]
Tat-induced transcriptional activity (F-Luc) [5]: specific inhibition | R-Luc activity [6]: decrease in R-Luc activity

CC(C)[C@]12O[C@H]1[C@@H]1O[C@]13[C@]1(O[C@H]1C[C@H]1C4=C(CC[C@@]13C)C(=O)OC4)[C@@H]2O [triptolide, reference compound]
Tat-induced transcriptional activity (F-Luc) [5]: specific inhibition

Methyl (E)-2-(3-chloroallyl)-3-oxindole-2-carboxylate [Compound 6e]
Inhibition of HIV-1 Infectivity (%) (HIV-1NL4-3 [1]): 11.49 ± 5.66% | Cell Viability (%) (TZM-bl cells): 95.66 ± 7.32%

Methyl (E)-2-(3-chloroallyl)-5-methyl-3-oxindole-2-carboxylate [Compound 6d]
Inhibition of HIV-1 Infectivity (%) (HIV-1NL4-3 [1]): 0.00 ± 10.66% | Cell Viability (%) (TZM-bl cells): 96.96 ± 9.15% | Inhibition of Tat-induced HIV-1 transcription, concentration response [5]: did not inhibit
